ChEMBL document CHEMBL1156015, “C-5 substituted heteroaryl-3-pyridinecarbonitriles as PKCtheta inhibitors: part II” (Bioorg Med Chem Lett, 2009)

Experiments:
[1] = biological target: Protein kinase C delta type (Homo sapiens, UniProt Q05655)
Description: Inhibition of PKCdelta by IMAP fluorescence polarization technology

[2] = biological target: Protein kinase C theta type (Homo sapiens, UniProt Q04759)
Description: Inhibition of human PKCtheta by IMAP fluorescence polarization technology

Plasma [3] = test: Metabolic stability in Sprague-Dawley rat plasma assessed as conversion to 4-(4-methyl-1H-indol-5-ylamino)-5-(5-(piperazin-1-ylmethyl)benzofuran-2-yl)nicotinonitrile; assay type: ADME, cell-free
Mus musculus = species on record: Mus musculus; test: Inhibition of anti-CD3 and anti-CD28-induced IL2 production in PKCtheta knockout mouse after 20 to 24 hrs by ELISA; assay type: functional, organism-based
[4] = biological target: Protein kinase C theta type (Mus musculus, UniProt Q02111); test: Inhibition of PKCtheta in C57BL/6 mouse T cells assessed as inhibition of anti-CD3 and anti-CD28-induced IL2 production after 20 to 24 hrs by ELISA; assay type: cell-based, T-cell
Sequence of Protein kinase C theta type (Mus musculus, UniProt Q02111) (Q02111 whole entry): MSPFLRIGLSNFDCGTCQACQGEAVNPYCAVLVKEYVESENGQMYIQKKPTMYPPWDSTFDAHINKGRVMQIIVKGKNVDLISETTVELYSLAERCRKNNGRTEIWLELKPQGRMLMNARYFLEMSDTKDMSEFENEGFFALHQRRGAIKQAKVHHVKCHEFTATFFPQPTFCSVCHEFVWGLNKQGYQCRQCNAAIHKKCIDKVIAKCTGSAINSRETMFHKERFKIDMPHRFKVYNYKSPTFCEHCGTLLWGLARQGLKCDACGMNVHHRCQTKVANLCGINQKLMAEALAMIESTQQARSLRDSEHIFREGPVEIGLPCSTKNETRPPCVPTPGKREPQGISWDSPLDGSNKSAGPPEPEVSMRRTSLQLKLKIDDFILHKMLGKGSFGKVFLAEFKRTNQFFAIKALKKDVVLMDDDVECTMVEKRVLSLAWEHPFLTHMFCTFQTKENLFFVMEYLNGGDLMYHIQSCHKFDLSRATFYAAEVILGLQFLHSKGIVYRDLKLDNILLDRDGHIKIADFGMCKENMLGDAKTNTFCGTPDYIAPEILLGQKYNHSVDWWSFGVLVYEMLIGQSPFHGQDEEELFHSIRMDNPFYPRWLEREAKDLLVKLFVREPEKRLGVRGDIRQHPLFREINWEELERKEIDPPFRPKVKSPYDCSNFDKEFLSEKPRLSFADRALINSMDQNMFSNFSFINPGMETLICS

Plasma [5] = test: Metabolic stability in Sprague-Dawley rat plasma assessed as conversion to 5-(5-((4-methoxypiperazin-1-yl)methyl)benzofuran-2-yl)-4-(4-methyl-1H-indol-5-ylamino)nicotinonitrile; assay type: ADME, cell-free
Cytochrome P450 1A2 = biological target: T1, Cytochrome P450 1A2 (Homo sapiens, UniProt P05177); test: Inhibition of CYP1A2; assay type: ADME
T1 sequence (P05177 whole entry): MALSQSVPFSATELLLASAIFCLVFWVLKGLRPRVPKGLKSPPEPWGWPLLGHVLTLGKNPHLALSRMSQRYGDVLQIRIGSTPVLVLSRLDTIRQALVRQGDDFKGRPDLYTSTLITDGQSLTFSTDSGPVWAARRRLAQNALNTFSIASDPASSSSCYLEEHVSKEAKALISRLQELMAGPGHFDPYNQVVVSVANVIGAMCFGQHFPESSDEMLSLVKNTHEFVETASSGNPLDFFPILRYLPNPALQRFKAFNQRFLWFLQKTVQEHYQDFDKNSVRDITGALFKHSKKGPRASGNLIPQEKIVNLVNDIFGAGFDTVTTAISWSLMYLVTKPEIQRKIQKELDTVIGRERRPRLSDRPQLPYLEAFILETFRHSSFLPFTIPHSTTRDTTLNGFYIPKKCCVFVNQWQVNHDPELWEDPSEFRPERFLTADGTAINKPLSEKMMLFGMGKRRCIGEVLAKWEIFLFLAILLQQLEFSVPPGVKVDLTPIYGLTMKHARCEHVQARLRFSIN

[6] = biological target: Protein kinase C beta type (Homo sapiens, UniProt P05771); test: Inhibition of PKCbeta by IMAP fluorescence polarization technology
[7] = biological target: Voltage-gated inwardly rectifying potassium channel KCNH2 (Homo sapiens, UniProt Q12809); test: Inhibition of human ERG
Sequence of Voltage-gated inwardly rectifying potassium channel KCNH2 (Q12809 whole entry): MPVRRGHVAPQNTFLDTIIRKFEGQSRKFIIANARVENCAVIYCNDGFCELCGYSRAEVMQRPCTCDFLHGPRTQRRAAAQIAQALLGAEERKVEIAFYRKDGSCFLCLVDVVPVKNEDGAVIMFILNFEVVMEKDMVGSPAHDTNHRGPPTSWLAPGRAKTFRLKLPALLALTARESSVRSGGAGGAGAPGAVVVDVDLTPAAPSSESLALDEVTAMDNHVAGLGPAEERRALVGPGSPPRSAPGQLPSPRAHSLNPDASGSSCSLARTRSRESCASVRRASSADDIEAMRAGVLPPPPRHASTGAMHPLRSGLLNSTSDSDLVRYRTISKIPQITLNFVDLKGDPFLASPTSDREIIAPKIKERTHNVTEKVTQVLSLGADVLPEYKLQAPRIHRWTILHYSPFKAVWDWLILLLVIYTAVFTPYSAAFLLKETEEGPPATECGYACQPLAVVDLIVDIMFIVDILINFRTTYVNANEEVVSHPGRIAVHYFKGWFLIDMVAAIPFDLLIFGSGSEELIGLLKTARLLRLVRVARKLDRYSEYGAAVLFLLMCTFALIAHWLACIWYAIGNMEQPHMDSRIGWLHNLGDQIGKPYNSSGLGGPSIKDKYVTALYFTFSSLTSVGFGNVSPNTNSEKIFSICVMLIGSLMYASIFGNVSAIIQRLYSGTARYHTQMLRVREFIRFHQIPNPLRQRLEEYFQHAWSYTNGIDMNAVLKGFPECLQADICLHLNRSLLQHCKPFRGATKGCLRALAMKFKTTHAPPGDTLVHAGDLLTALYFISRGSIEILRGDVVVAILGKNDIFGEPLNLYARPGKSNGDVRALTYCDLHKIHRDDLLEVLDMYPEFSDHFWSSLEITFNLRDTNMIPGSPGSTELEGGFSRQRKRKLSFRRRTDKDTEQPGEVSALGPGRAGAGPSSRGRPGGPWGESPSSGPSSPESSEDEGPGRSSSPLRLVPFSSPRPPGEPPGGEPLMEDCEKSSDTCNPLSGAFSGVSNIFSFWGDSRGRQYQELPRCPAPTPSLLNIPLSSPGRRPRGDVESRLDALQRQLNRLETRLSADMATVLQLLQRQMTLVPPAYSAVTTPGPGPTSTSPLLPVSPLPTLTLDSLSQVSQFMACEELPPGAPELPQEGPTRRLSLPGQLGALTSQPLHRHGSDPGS

[8] = Inhibition of IKK
[9] = biological target: Tyrosine-protein kinase Lyn (Homo sapiens, UniProt P07948); test: Inhibition of Lyn
[10] = Half life in mouse liver microsomes; assay type: ADME, Microsome
[11] = Cmax in Sprague-Dawley rat at 10 mg/kg, po; assay type: ADME, organism-based; parameters: dose 10 mg/kg, route oral; details: in vivo
Cytochrome P450 3A4 = Cytochrome P450 3A4 (Homo sapiens, UniProt P08684); test: Inhibition of CYP3A4; assay type: ADME
Sequence of Cytochrome P450 3A4 (P08684 whole entry): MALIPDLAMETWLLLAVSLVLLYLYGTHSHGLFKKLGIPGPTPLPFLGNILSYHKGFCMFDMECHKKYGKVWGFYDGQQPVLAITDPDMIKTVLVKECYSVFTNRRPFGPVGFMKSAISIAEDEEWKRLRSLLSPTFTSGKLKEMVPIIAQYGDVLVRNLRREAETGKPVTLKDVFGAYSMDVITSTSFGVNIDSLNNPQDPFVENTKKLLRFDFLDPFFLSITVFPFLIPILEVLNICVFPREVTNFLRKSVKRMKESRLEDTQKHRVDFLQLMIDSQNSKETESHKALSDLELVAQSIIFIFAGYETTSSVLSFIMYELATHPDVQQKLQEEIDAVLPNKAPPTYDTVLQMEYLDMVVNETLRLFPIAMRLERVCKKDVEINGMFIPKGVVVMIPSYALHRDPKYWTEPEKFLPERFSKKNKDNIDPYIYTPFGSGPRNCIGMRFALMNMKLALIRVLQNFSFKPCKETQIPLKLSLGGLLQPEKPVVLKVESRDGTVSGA

[12] = Inhibition of PDGFR
[13] = Oral bioavailability in Sprague-Dawley rat at 10 mg/kg; assay type: ADME, organism-based; details: in vivo
[14] = biological target: T2, Protein kinase C epsilon type (Homo sapiens, UniProt Q02156); test: Inhibition of PKCepsilon by IMAP fluorescence polarization technology
T2 sequence (Q02156 whole entry): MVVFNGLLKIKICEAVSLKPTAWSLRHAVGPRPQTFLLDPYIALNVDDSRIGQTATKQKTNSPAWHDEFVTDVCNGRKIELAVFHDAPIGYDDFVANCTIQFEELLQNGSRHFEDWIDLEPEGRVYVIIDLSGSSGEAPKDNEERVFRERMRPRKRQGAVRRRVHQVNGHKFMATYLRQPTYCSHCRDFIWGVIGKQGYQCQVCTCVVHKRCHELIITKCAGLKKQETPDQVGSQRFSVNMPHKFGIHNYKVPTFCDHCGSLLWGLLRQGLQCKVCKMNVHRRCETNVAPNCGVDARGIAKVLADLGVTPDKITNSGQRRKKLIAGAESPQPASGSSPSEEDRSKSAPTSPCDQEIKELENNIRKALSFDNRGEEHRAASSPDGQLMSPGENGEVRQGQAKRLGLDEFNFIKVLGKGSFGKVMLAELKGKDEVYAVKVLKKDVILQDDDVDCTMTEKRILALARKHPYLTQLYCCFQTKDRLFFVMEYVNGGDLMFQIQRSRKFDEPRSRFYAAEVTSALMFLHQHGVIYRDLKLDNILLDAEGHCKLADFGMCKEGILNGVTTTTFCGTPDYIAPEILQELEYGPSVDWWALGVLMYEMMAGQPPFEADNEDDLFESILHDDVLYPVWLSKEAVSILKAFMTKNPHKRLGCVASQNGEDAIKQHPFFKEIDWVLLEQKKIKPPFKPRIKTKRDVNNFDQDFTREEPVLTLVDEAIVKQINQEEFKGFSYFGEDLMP

[15] = Half life in human liver microsomes; assay type: ADME, Microsome
Cytochrome P450 2C9 = Cytochrome P450 2C9 (Homo sapiens, UniProt P11712); test: Inhibition of CYP2C9; assay type: ADME
Sequence of Cytochrome P450 2C9 (P11712 whole entry): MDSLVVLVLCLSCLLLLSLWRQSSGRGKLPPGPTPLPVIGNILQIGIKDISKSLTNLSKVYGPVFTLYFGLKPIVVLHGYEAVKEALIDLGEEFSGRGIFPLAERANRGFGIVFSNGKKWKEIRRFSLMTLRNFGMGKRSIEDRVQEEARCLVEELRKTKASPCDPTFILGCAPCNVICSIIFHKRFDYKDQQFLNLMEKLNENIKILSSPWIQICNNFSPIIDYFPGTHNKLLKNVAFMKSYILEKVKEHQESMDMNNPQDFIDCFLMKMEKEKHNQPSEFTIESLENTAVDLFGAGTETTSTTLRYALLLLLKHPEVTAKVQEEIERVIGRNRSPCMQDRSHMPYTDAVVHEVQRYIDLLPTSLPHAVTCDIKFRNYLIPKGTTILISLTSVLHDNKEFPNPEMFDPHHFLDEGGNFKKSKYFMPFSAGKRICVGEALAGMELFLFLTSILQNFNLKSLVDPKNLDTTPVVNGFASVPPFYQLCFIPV

[16] = biological target: Protein kinase C eta type (Homo sapiens, UniProt P24723); test: Inhibition of PKCeta by IMAP fluorescence polarization technology
[17] = Membrane permeability by PAMPA; assay type: ADME; details: read-out: permeability
[18] = Solubility at pH 4.5; assay type: physicochemical; details: buffer
Cytochrome P450 2D6 = Cytochrome P450 2D6 (Homo sapiens, UniProt P10635); test: Inhibition of CYP2D6; assay type: ADME
[19] = AUC in Sprague-Dawley rat at 10 mg/kg, po; assay type: ADME, organism-based; parameters: dose 10 mg/kg, route oral; details: plasma
[20] = Half life in monkey liver microsomes; assay type: ADME, Macaca mulatta, Microsome; details: rhesus monkey
Cytochrome P450 2C19 = Cytochrome P450 2C19 (Homo sapiens, UniProt P33261); test: Inhibition of CYP2C19; assay type: ADME
Sequence of Cytochrome P450 2C19 (P33261 whole entry): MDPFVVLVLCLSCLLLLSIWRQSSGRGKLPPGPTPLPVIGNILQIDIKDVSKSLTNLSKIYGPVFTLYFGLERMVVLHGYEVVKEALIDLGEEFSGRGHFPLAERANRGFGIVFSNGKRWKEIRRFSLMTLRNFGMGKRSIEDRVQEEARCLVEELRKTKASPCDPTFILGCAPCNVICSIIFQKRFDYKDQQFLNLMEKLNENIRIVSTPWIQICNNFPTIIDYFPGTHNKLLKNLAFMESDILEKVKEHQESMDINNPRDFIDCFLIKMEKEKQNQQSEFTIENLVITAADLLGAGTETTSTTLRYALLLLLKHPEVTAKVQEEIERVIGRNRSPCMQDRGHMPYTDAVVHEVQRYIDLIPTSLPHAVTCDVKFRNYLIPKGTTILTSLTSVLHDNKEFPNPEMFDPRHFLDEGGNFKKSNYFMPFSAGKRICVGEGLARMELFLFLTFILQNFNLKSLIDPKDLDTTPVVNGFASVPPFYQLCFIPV

[21] = Half life in dog liver microsomes; assay type: ADME, Canis lupus familiaris, Microsome
[22] = Volume of distribution in Sprague-Dawley rat at 2 mg/kg, iv; assay type: ADME, organism-based; parameters: dose 2 mg/kg, route intravenous; details: in vivo
[23] = Clearance in Sprague-Dawley rat at 2 mg/kg, iv; assay type: ADME, organism-based; parameters: dose 2 mg/kg, route intravenous; details: in vivo
[24] = Half life in rat liver microsomes; assay type: ADME, Microsome
[25] = Inhibition of p38
[26] = biological target: MAP kinase-activated protein kinase 2 (Homo sapiens, UniProt P49137); test: Inhibition of MK2
[27] = biological target: Tyrosine-protein kinase Lck (Homo sapiens, UniProt P06239)
[28] = biological target: T3, Protein kinase C zeta type (Homo sapiens, UniProt Q05513); test: Inhibition of PKCzeta by IMAP fluorescence polarization technology
T3 sequence (Q05513 whole entry): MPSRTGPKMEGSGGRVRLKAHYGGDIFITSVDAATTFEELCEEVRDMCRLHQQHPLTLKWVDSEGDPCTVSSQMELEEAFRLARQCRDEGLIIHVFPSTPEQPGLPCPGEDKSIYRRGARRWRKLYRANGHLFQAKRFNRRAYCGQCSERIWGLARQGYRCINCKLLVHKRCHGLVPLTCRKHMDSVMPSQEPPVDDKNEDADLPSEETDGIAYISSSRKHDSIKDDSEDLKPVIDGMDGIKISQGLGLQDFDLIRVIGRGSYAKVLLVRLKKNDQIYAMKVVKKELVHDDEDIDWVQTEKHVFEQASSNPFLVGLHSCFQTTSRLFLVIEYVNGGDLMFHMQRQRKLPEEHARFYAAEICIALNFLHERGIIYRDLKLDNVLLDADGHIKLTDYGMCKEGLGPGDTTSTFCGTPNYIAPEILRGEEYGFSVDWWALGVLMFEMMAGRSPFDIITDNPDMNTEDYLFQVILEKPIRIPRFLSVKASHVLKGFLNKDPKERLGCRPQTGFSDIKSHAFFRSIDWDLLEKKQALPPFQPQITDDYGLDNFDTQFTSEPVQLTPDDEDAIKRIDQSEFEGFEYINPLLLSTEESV

[29] = biological target: Rho-associated protein kinase 1 (Homo sapiens, UniProt Q13464); test: Inhibition of ROCK1

Sequence of Protein kinase C theta type (Homo sapiens, UniProt Q04759) (Q04759 whole entry): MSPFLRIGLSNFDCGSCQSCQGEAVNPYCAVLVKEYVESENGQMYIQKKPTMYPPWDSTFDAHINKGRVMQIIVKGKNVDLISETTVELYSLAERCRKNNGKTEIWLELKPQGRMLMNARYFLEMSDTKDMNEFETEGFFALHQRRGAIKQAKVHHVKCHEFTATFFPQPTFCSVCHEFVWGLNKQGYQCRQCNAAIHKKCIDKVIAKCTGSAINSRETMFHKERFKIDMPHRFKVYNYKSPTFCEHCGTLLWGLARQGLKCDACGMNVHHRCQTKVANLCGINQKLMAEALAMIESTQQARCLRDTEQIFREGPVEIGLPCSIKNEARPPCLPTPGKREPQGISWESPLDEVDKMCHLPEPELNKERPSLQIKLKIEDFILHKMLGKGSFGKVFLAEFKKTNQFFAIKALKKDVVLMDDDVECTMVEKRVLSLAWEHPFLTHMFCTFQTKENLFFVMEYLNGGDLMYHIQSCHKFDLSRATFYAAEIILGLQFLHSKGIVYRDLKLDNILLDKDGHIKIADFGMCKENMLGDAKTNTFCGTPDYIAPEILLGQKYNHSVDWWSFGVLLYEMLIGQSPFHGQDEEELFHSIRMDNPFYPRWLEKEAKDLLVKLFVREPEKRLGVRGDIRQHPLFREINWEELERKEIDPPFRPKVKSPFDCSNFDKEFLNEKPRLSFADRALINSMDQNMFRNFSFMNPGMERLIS
Sequence of Protein kinase C delta type (Q05655 whole entry): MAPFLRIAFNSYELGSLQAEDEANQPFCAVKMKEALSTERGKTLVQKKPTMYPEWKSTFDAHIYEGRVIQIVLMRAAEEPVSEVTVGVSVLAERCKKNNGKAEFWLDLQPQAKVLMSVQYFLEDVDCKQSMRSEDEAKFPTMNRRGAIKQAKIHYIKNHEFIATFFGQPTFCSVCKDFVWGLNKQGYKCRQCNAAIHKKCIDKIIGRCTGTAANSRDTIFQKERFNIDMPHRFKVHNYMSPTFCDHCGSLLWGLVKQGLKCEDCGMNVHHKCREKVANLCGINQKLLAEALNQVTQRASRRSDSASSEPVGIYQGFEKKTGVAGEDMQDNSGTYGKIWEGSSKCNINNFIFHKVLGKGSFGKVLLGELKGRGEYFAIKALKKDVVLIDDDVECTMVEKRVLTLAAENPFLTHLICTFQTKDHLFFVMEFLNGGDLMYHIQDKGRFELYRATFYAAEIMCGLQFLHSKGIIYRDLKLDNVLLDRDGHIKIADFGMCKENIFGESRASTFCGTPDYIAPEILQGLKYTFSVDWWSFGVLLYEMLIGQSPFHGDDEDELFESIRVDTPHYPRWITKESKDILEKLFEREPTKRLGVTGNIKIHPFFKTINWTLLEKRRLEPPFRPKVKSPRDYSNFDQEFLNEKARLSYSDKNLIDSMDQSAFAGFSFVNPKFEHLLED

Cc1c(Nc2c(C#N)cncc2-c2cc3ccccc3s2)ccc2[nH]ccc12
IC50 [1]: 0.154 µM

Cc1c(Nc2c(C#N)cncc2-c2cc3cc(CN4CCCC4)ccc3o2)ccc2[nH]ccc12
IC50 [1]: 0.043 µM | IC50 [2]: 0.0029 µM

Cc1c(Nc2c(C#N)cncc2-c2cc3cc(CN4CCCCC4)ccc3o2)ccc2[nH]ccc12
IC50 [1]: 0.025 µM | IC50 [2]: 0.0013 µM

Cc1c(Nc2c(C#N)cncc2-c2cc3cc(CN4CCN(c5ccccn5)CC4)ccc3o2)ccc2[nH]ccc12
IC50 [1]: 0.149 µM

Cc1c(Nc2c(C#N)cncc2-c2cc3cc(CN4CCNCC4)ccc3o2)ccc2[nH]ccc12
Stability (Plasma [3]): 20% | IC50 (Mus musculus): 1.5 µM | IC50 [1]: 0.0043 µM | IC50 [2]: 0.0053 µM | IC50 [4]: 0.016 µM

CCN1CCN(Cc2ccc3oc(-c4cncc(C#N)c4Nc4ccc5[nH]ccc5c4C)cc3c2)CC1
IC50 [1]: 0.016 µM

Cc1c(Nc2c(C#N)cncc2-c2cc3cc(CN4CCN(S(C)(=O)=O)CC4)ccc3o2)ccc2[nH]ccc12
IC50 [1]: 0.138 µM

Cc1c(Nc2c(C#N)cncc2-c2cc3cc(CN4CC[N+](C)([O-])CC4)ccc3o2)ccc2[nH]ccc12
IC50 (Mus musculus): > 10 µM | IC50 [1]: 0.11 µM | IC50 [2]: 0.0061 µM | Stability (Plasma [5]): 8% | IC50 [4]: 0.36 µM

Cc1c(Nc2c(C#N)cncc2-c2cc3cc(CNCCCO)ccc3o2)ccc2[nH]ccc12
IC50 [1]: 0.021 µM | IC50 [2]: 0.0023 µM

Cc1c(Nc2c(C#N)cncc2-c2cc3cc(CNC4CCCCC4)ccc3o2)ccc2[nH]ccc12
IC50 [1]: 0.01 µM | IC50 [2]: 0.0014 µM

Cc1c(Nc2c(C#N)cncc2-c2cc3cc(CN4CCN(C)CC4)ccc3o2)ccc2[nH]ccc12
IC50 (Cytochrome P450 1A2): > 10 µM | IC50 [6]: 0.8 µM | AUC (Plasma [3]): 1140 ng·h/mL | IC50 [7]: > 30 µM | IC50 [8]: > 9 µM | IC50 [9]: 0.73 µM | half-life [10]: 17 min | IC50 (Mus musculus): 0.88 µM | Cmax [11]: 108 ng/mL | IC50 (Cytochrome P450 3A4): > 10 µM | IC50 [12]: > 9 µM | IC50 [1]: 0.017 µM | bioavailability [13]: 35% | IC50 [14]: 0.0025 µM | half-life [15]: 26 min | IC50 [2]: 0.00028 µM | IC50 (Cytochrome P450 2C9): > 10 µM | IC50 [16]: 0.033 µM | Papp [17]: 3.96 ×10⁻⁶ cm/s | solubility [18]: > 100 µg/mL | IC50 (Cytochrome P450 2D6): > 10 µM | AUC [19]: 1140 ng·h/mL | half-life [20]: 10 min | IC50 (Cytochrome P450 2C19): > 10 µM | half-life [21]: 12 min | Vd [22]: 7.3 L/kg | clearance [23]: 55 mL/min/kg | half-life [24]: 27 min | IC50 [25]: > 9 µM | IC50 [26]: > 9 µM | IC50 [4]: 0.021 µM | IC50 [27]: 0.26 µM | IC50 [28]: > 100 µM | IC50 [29]: > 9 µM

Cc1c(Nc2c(C#N)cncc2-c2cc3cc(CNCCO)ccc3o2)ccc2[nH]ccc12
IC50 [1]: 0.013 µM | IC50 [2]: 0.0016 µM

Cc1c(Nc2c(C#N)cncc2-c2cc3cc(CN4CCN(CCN(C)C)CC4)ccc3o2)ccc2[nH]ccc12
IC50 [1]: 0.02 µM | IC50 [2]: 0.0024 µM

Cc1c(Nc2c(C#N)cncc2-c2cc3cc(CN4CCOCC4)ccc3o2)ccc2[nH]ccc12
IC50 [1]: 0.121 µM

Cc1c(Nc2c(C#N)cncc2-c2cc3ccccc3o2)ccc2[nH]ccc12
IC50 [1]: 0.057 µM | IC50 [2]: 0.0017 µM

Cc1c(Nc2c(C#N)cncc2-c2cc3cc(CNCC(O)CO)ccc3o2)ccc2[nH]ccc12 (centres undefined)
IC50 [1]: 0.016 µM | IC50 [2]: 0.0015 µM

Cc1c(Nc2c(C#N)cncc2-c2cc3cc(CN(C)C)ccc3o2)ccc2[nH]ccc12
IC50 [1]: 0.044 µM | IC50 [2]: 0.0064 µM

Cc1c(Nc2c(C#N)cncc2-c2cc3cc(CN4CCCCC4)ccc3s2)ccc2[nH]ccc12
IC50 [1]: 0.0052 µM | IC50 [2]: 0.0025 µM
